In US11613531B2, “Inhibitors of RHO associated coiled-coil containing protein kinase” (Kadmon Corporation, LLC, priority 2017, dated 2023):
pIC50: −log10 of the molar value. Like-named read-outs stand apart in the source and are kept apart here.

Experiments:
[1] = molecular target: Recombinant ROCK2 (amino acids 1-552) (Homo sapiens (Human), UniProt O75116); assay: Z′-Lyte kinase assay, ROCK2; assay type: biochemical; details: for inhibition at 1 µM: 1 μM compound, read-out: ROCK2 % inh. @ [conc]
Recombinant ROCK2 (amino acids 1-552), sequence (O75116 1-552): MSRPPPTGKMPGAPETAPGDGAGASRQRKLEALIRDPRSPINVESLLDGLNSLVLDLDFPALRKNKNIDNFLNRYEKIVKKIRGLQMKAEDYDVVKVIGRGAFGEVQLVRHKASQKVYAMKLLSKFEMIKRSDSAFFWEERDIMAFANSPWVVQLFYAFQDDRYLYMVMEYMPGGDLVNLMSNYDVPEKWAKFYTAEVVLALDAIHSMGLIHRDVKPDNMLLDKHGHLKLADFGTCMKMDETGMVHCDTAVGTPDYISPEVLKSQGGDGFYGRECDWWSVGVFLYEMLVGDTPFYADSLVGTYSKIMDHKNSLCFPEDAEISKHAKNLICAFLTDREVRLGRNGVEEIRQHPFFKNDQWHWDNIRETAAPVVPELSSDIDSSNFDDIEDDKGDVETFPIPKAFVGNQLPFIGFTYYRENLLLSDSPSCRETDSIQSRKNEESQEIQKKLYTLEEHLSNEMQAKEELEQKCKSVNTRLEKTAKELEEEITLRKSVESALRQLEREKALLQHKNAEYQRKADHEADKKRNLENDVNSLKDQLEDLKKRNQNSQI
Summary of the method: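 IC50s derive from nonlinear curve fits over a 9-point, 2-fold dilution series, with single-point inhibition at 1 μM expressed relative to DMSO. Activity of truncated human ROCK1 (residues 1-535) and ROCK2 (residues 1-552) measured with the Z′-Lyte kinase format.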

[2] = test system: ppMlc (T18/S19) levels in A7R5 cells; assay: A7R5 in-cell ELISA (pMLC); assay type: cell-based, Rat; details: Rattus norvegicus, A7R5, A7R5 cells; for inhibition at 10 µM: 10 μM compound; for inhibition at 10 µM / inhibition at 1 µM: read-out: pMLC % inh A7R5 @ [conc]; for IC50: ppMlc (T18/S19); for inhibition at 1 µM: 1 μM compound
Summary of the method: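 Cellular IC50 came from a nonlinear regression fit of ppMlc (T18/S19) signal, read by colorimetric in-cell ELISA on fixed cells. Rat A7R5 aortic smooth muscle cells had been exposed for 90 min to compounds in 9-point 2-fold serial dilution, 24 h after seeding.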

[3] = 9 points 2-fold serial dilution

Row | SMILES | inhibition at 1 µM [1] | inhibition at 10 µM [2] | IC50 [2] | pIC50 [1, 3] | inhibition at 1 µM [2] | pIC50 [1]
1 | CC(C)C1CN(c2ncc(F)c(Nc3ccc4[nH]ncc4c3)n2)CCN1 (stereo not shown) [Example 147, N-(5-fluoro-2-(3-isopropylpiperazin-1-yl)pyrimidin-4-yl)-1H-indazol-5-amine] | 37.6% | 47.8% | – | – | – | –
2 | CCC1CN(c2ncc(F)c(Nc3ccc4[nH]ncc4c3)n2)CCCN1 (stereo not shown) [Example 148, N-(2-(3-ethyl-1,4-diazepan-1-yl)-5-fluoropyrimidin-4-yl)-1H-indazol-5-amine] | 55.1% | 46% | – | – | – | –
3 | CCC1CN(c2ncc(F)c(Nc3ccc4[nH]ncc4c3)n2)CCN1 (stereo not shown) [Example 149, N-(2-(3-ethylpiperazin-1-yl)-5-fluoropyrimidin-4-yl)-1H-indazol-5-amine] | 71.4% | 49.4% | – | – | – | –
4 | CC1CN(c2ncc(F)c(Nc3ccc4[nH]ncc4c3)n2)CC(C)N1 (stereo not shown) [Example 150, N-(2-(3,5-dimethylpiperazin-1-yl)-5-fluoropyrimidin-4-yl)-1H-indazol-5-amine] | 43.2% | 44.4% | 4970 nM | – | – | –
5 | CC1CN(c2ncc(F)c(Nc3ccc4[nH]ncc4c3)n2)CCCN1 (stereo not shown) [Example 151, N-(5-fluoro-2-(3-methyl-1,4-diazepan-1-yl)pyrimidin-4-yl)-1H-indazol-5-amine] | 87.4% | 55.1% | – | 7.10 | – | –
6 | CC1CCN(c2ncc(F)c(Nc3ccc4[nH]ncc4c3)n2)CCN1 (stereo not shown) [Example 152, N-(5-fluoro-2-(5-methyl-1,4-diazepan-1-yl)pyrimidin-4-yl)-1H-indazol-5-amine] | 77% | 50.7% | 1030 nM | – | – | –
7 | Fc1cnc(N2CCNC3(CC3)C2)nc1Nc1ccc2[nH]ncc2c1 [Example 153, N-(5-fluoro-2-(4,7-diazaspiro[2.5]octan-7-yl)pyrimidin-4-yl)-1H-indazol-5-amine] | – | – | – | 6.25 | 23.8% | –
8 | CC1CN(c2ncc(F)c(Nc3ccc4[nH]ncc4c3)n2)C(C)CN1 (stereo not shown) [Example 155, N-(2-(2,5-dimethylpiperazin-1-yl)-5-fluoropyrimidin-4-yl)-1H-indazol-5-amine] | 82.1% | – | – | – | 25% | –
9 | Fc1cnc(N2CC3CC(C2)N3)nc1Nc1ccc2[nH]ncc2c1 [Example 157, N-(2-(3,6-diazabicyclo[3.1.1]heptan-3-yl)-5-fluoropyrimidin-4-yl)-1H-indazol-5-amine] | – | – | – | 7.05 | 27.2% | –
10 | Fc1cnc(N2CC3CNCC(C3)C2)nc1Nc1ccc2[nH]ncc2c1 [Example 167, N-(2-(3,7-diazabicyclo[3.3.1]nonan-3-yl)-5-fluoropyrimidin-4-yl)-1H-indazol-5-amine] | 88.2% | – | – | – | 22.5% | –
11 | Fc1cnc(N2CCN3CCNCC3C2)nc1Nc1ccc2[nH]ncc2c1 (stereo not shown) [Example 173, N-(5-fluoro-2-(octahydro-2H-pyrazino[1,2-a]pyrazin-2-yl)pyrimidin-4-yl)-1H-indazol-5-amine] | 17.6% | – | – | – | 1.3% | –
12 | Fc1cnc(N2CC3CNC3C2)nc1Nc1ccc2[nH]ncc2c1 (stereo not shown) [Example 174, N-(2-(3,6-diazabicyclo[3.2.0]heptan-3-yl)-5-fluoropyrimidin-4-yl)-1H-indazol-5-amine] | – | – | – | – | 26.3% | 7.46
13 | Fc1cnc(N2CC3(CCNCC3)c3ccccc32)nc1Nc1ccc2[nH]ncc2c1 [Example 176, N-(5-fluoro-2-(spiro[indoline-3,4′-piperidin]-1-yl)pyrimidin-4-yl)-1H-indazol-5-amine] | 0% | – | – | – | 14.5% | –
14 | Fc1cnc(N2CC(C3CCCNC3)c3ccccc32)nc1Nc1ccc2[nH]ncc2c1 (stereo not shown) [Example 177, N-(5-fluoro-2-(3-(piperidin-3-yl)indolin-1-yl)pyrimidin-4-yl)-1H-indazol-5-amine] | 9.5% | – | – | – | 10.2% | –
15 | CC1CNCCN1c1ncc(Cl)c(Nc2ccc3[nH]ncc3c2)n1 (stereo not shown) [Example 179, N-(5-chloro-2-(2-methylpiperazin-1-yl)pyrimidin-4-yl)-1H-indazol-5-amine] | 77.6% | 67.4% | 1540 nM | – | – | –
